Laboratory results from patent publication US20100068150A1, “Selective Caspase Inhibitors” (The Board of Trustees of the Leland Stanford Junior …, priority 2006, published 2010).

How the values were obtained:
Type in all cases: biochemical
Caspase-3 = molecular target: T1, Caspase-3 (Homo sapiens, UniProt P42574); experiment: Kinetic compound screening, progress curve method, caspase-3; settings: for Ki(app) Caspase-3: Table III, Ki(app) = Kass or Kobs/I, 5 nM active caspase-3; for Caspase-3 Ki(app): Table IV
T1 sequence (P42574 29-175 limits assumed): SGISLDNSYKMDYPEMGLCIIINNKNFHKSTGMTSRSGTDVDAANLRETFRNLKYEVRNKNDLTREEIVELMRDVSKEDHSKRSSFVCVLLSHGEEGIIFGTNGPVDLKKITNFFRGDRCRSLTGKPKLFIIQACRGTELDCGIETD
T1 sequence (P42574 176-277 limits assumed): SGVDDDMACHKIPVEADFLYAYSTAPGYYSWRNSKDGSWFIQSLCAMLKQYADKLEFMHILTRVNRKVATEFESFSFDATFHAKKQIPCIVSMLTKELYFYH
Text: (§1) Table III below presents Ki(app) values for select AB compounds. Ki(app) values (also called Kass or Kobs/I) represent the speed of inhibitor binding to a target enzyme. Units are [M^−1s^−1]. NI indicates no inhibition at concentrations tested. Parent compounds AB09, ABo8, and AB07 that include the optimal substrate specificity sequences for caspases-3, […] as determined by Thornberry and colleagues (Thornberry et al., 19970 are included between double lines.
(§2) The inhibitors AB07 (NP-LEHD-AOMK, caspase-9), AB08 (NP-LETD-AOMK, caspase-8), and AB09 (NP-DEVD-AOMK, caspase-3) were synthesized and kinetic inhibition constants (Kiapp) were obtained for all compounds for caspases 3, 7, 8 and 9 using the progress curve method for pseudo-first order reactions kinetics (Salvesen, 1989) (structures shown in Table I). […] Ki(app) values (also called Kass or Kobs/I) represent the speed of inhibitor binding to a target enzyme. Units are [M-1s-1]. NI indicates no inhibition at concentrations tested, ND indicates data not determined, SD indicates standard deviation.
(§3) Compound screening was completed using the progress curve method as described (Salvesen, 1989). All screening was carried out in caspase reaction buffer. The caspase-9 specific compounds AB38, 40, 41 and 42 were screened in caspase reaction buffer and in caspase buffer with 1M sodium citrate instead of sucrose as described (Pop, 2006) The concentrations of active caspases used is as follows: 5 nM active caspase-3, 5 nM active caspase-7, 10 nM active caspase-8, and 50 nM active caspase-9. To ensure full activation, caspases 3/7, 8 and 9 were preincubated at 37° C. for 5, 10, or 40 minutes respectively before kinetic measurements were made.

Caspase-7 = molecular target: T2, Caspase-7 (Homo sapiens, UniProt P55210); experiment: Kinetic compound screening, progress curve method, caspase-7; settings: for Ki(app) Caspase-7: Table III, Ki(app) = Kass or Kobs/I, 5 nM active caspase-7; for Caspase-7 Ki (app): Table IV
T2 sequence (P55210 1-303): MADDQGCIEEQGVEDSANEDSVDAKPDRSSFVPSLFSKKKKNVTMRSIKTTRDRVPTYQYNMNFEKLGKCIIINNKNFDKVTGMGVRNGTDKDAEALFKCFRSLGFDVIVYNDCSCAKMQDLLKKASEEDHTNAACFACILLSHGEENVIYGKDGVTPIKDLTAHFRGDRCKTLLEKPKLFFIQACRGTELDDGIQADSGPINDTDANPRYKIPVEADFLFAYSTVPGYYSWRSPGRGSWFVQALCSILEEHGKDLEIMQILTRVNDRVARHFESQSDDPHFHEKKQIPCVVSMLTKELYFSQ
Text: as §1, §2, §3

Caspase-8 = Caspase-8 (Homo sapiens, UniProt Q14790); experiment: Kinetic compound screening, progress curve method, caspase-8; settings: for Ki(app) Caspase-8: Table III, Ki(app) = Kass or Kobs/I, 10 nM active caspase-8; for Caspase-8 Ki (app): Table IV, NI = no inhibition at concentrations tested
Sequence of Caspase-8 (Q14790 217-479): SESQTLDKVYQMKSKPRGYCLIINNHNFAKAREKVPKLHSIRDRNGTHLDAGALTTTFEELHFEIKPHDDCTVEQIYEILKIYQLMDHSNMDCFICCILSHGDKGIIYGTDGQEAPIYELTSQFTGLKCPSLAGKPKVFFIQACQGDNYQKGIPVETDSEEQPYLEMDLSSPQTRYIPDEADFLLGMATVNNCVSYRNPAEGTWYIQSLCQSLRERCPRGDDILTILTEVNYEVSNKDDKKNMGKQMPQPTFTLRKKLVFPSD
Text: as §1, §2, §3

Caspase-9 = molecular target: T3, Caspase-9 (Homo sapiens, UniProt P55211); experiment: Kinetic compound screening, progress curve method, caspase-9; settings: NI = no inhibition at concentrations tested; for Ki(app) Caspase-9: Table III, Ki(app) = Kass or Kobs/I, 50 nM active caspase-9; for Caspase-9 Ki (app): Table IV
T3 sequence (P55211 1-416): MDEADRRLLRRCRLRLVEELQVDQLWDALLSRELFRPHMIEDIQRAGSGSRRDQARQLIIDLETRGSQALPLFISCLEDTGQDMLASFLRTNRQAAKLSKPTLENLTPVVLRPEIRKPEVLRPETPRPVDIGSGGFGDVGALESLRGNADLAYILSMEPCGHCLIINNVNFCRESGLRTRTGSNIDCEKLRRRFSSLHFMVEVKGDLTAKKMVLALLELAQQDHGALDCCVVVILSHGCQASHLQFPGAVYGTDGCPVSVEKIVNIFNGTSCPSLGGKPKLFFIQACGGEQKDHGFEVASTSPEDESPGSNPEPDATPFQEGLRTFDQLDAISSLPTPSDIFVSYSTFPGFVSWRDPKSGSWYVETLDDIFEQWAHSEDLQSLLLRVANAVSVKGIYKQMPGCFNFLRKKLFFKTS
Text: as §1, §2, §3

[1] = tested on: recombinant caspases-3, 7, 8 and 9; experiment: Indirect competition with general probe KMB01 on individual recombinant caspases; settings: 100 nM caspase, inhibitor 30 min, then 5 μM KMB01 30 min; range of concentrations
Description: (a.) Indirect competition of a panel of inhibitors with the general caspase probe KMB01. Individual caspases-3, 7, 8 and 9 (100 nM each) were incubated with the indicated inhibitors for 30 minutes followed by a 30 minute incubation with KMB01. Samples were analyzed by SDS-PAGE and residual active site labeling was visualized by biotin blotting using streptavidin-HRP. (b.) Direct labeling of caspase active sites using specific ABPs. Equal amounts of active caspaseses-3, 8, and 9 ([…]) were incubated together with increasing concentrations of each of the indicated biotinylated active site probes for 30 minutes. Active site labeling was visualized by SDS-PAGE analysis followed by biotin blotting using streptavidin HRP. (*) Indicates labeling of the full-length form of caspase-3 that is only observed using recombinant enzyme preparations.
We initially focused on recombinant caspase3, 7, 8, and 9. Each caspase was individually pre-incubated with our optimal series of selective inhibitors at a range of concentrations and residual activity was measured by addition of the general caspase probe KMB01. Overall, the competition data mirrored the kinetic data with caspase-3 and 8-specific compounds showing specific competition of the desired target.
This was shown by analysis of inhibitor and probe selectivity by indirect competition and direct labeling of recombinant caspases. Indirect competition of a panel of inhibitors with the general caspase probe KMB01 was carried out with individual caspases-3, 7, 8 and 9 (100 nM each), which were incubated with the specific inhibitors for 30 minutes followed by a 30-minute incubation with KMB01. Samples were analyzed by SDS-PAGE and residual active site labeling was visualized by biotin blotting using streptavidin-HRP. Also, the direct labeling of caspase active sites was carried out using specific ABPs. Equal amounts of active caspaseses-3, 8, and 9 ([…]) were incubated together with increasing concentrations of each of the indicated biotinylated active site probes for 30 minutes. Active site labeling was visualized by SDS-PAGE analysis followed by biotin blotting using streptavidin HRP.
For all competition and direct labeling experiments recombinant caspases were pre-incubated in caspase reaction buffer for 15 minutes at 37° C. For competition experiments, 100 nM of active site titrated caspase was incubated for 30 minutes at 37° C. with appropriate inhibitor and then residual active sites were labeled with 5 μM KMB01 for an additional 30 minutes. For direct labeling, 100 nM caspase-3, 8, and 9 were incubated together in the presence of appropriate ABPs at the indicated concentrations for 30 min at 37° C.

Row | SMILES | Ki(app) Caspase-3 (Caspase-3) | Caspase-3 Ki(app) (Caspase-3) | Ki(app) Caspase-7 (Caspase-7) | Caspase-7 Ki (app) (Caspase-7) | Ki(app) Caspase-8 (Caspase-8) | Caspase-8 Ki (app) (Caspase-8) | Ki(app) Caspase-9 (Caspase-9) | Caspase-9 Ki (app) (Caspase-9) | competition for KMB01 labeling of recombinant caspases [1]
1 | CCC(C)C(NC(=O)Cc1ccc(O)c([N+](=O)[O-])c1)C(=O)N[C@@H](CC(C)C)C(=O)N[C@@H](C)C(=O)N[C@@H](CC(=O)O)C(=O)COC(=O)c1c(C)cccc1C (stereo partly drawn) [AB40, Np-I-L- A-D-AOMK] | 261,470 M^−1s^−1 | 261,470 M-1s-1 | 11,256 M^−1s^−1 | 11,256 M-1s-1 | 35,174 M^−1s^−1 | 35,174 M-1s-1 | 48,867 M^−1s^−1 | 48,867 M-1s-1 | no specific inhibition
2 | Cc1cccc(C)c1C(=O)OCC(=O)[C@H](CC(=O)O)NC(=O)[C@H](C)NC(=O)[C@H](CC(C)C)NC(=O)C1CCCN1C(=O)Cc1ccc([N+](=O)[O-])c(O)c1 (stereo partly drawn) [AB38, Np-P-L- A-D-AOMK] | 46,108 M^−1s^−1 | 46,108 M-1s-1 | 27,814 M^−1s^−1 | 27,814 M-1s-1 | 19,676 M^−1s^−1 | 19,676 M-1s-1 | 18,004 M^−1s^−1 | 18,004 M-1s-1 | minimal degree of selectivity for caspase-9 over caspase-8
3 | CC[C@H](NC(=O)[C@@H](CCC(=O)O)NC(=O)c1ccccc1N)C(=O)N[C@@H](CC(=O)O)C(=O)COC(=O)c1c(C)cccc1C [AB28, NH2-6-E-8-D-DMBA] | 1,020,213 M^−1s^−1 | 1,020,213 M-1s-1 | 272,619 M^−1s^−1 | 272,619 M-1s-1 | 817,077 M^−1s^−1 | 817,077 M-1s-1 | 300,767 M^−1s^−1 | 300,767 M-1s-1 | blocked labeling of all four caspases targets

More lines, main results first:

Row | Ki(app) Caspase-3 (Caspase-3) | Caspase-3 Ki(app) (Caspase-3) | Ki(app) Caspase-7 (Caspase-7) | Caspase-7 Ki (app) (Caspase-7) | Ki(app) Caspase-8 (Caspase-8) | Caspase-8 Ki (app) (Caspase-8) | Ki(app) Caspase-9 (Caspase-9) | Caspase-9 Ki (app) (Caspase-9) | SMILES | competition for KMB01 labeling of recombinant caspases [1]
4 | 892,045 M^−1s^−1 | 892,045 M-1s-1 | 42,594 M^−1s^−1 | 42,594 M-1s-1 | 22,544 M^−1s^−1 | 22,544 M-1s-1 | 44,709 M^−1s^−1 | 44,709 M-1s-1 | CCC(C)C(NC(=O)Cc1ccc(O)c([N+](=O)[O-])c1)C(=O)NC(Cc1ccccc1)C(=O)N1CCCC1C(=O)N[C@@H](CC(=O)O)C(=O)COC(=O)c1c(C)cccc1C (stereo partly drawn) [AB42, NP-I-F- P-D-AOMK] | minimal degree of selectivity for caspase-9 over caspase-8
5 | 1,582,350 M^−1s^−1 | 1,582,350 M-1s-1 | 69,317 M^−1s^−1 | 69,317 M-1s-1 | 49,815 M^−1s^−1 | 49,815 M-1s-1 | 35,779 M^−1s^−1 | 35,779 M-1s-1 | CCC(C)C(NC(=O)Cc1ccc(O)c([N+](=O)[O-])c1)C(=O)N[C@@H](CC(C)C)C(=O)N1CSCC1C(=O)N[C@@H](CC(=O)O)C(=O)COC(=O)c1c(C)cccc1C (stereo partly drawn) [AB41, Np-I-L-38-D-AOMK] | no specific inhibition
